Experimental data reported in patent US20230150953A1, “SUBSTITUTED ISOPHTHALIC ACID DIAMIDES” (Bayer Aktiengesellschaft, priority 2020, published 2023).

Key:
Type in all cases: in vivo
[1] = system: SETVI Setaria viridis; assay: Pre-emergence herbicidal action against harmful plants; conditions: scored visually after 3 weeks vs untreated controls
Description: (§1) The abbreviations used for the harmful plants mean: • ABUTH Abutilon theophrasti ALOMY Alopecurus myosuroides • AVEFA Avena fatua AMARE Amaranthus retroflexus • CYPES Cyperus esculentus DIGSA Digitaria sanguinalis • ECHCG Echinochloa crus-galli HORMU Hordeum murinum • LOLMU Lolium multiflorum LOLRI Lolium rigidum • MATIN Matricaria inodora PHBPU Pharbitis purpurea • POLCO Polygonum convolvulus SETVI Setaria viridis • STEME Stellaria media VERPE Veronica persica • VIOTR Viola tricolor 1. Pre-Emergence Herbicidal Action Against Harmful Plants Seeds of monocotyledonous and dicotyledonous weed plants and crop plants are laid out in sandy loam soil in wood-fiber pots and covered with soil. The compounds of the invention, formulated in the form of wettable powders (WP) or as emulsion concentrates (EC), are then applied to the surface of the covering soil in the form of an aqueous suspension or emulsion at a water application rate equivalent to 600 to 800 l/ha, with addition of 0.2% wetting agent. After the treatment, the pots are placed in a greenhouse and kept under good growth conditions for the trial plants. The damage to the test plants is scored visually after a test period of 3 weeks by comparison with untreated controls (herbicidal activity in percent (%): 100% activity=the plants have died, 0% activity=like control plants). […] The tables below illustrate, in an illustrative manner, the post-emergence herbicidal action of the compounds of the invention, the herbicidal activity being stated in percent.

[2] = system: POLCO Polygonum convolvulus; assay: as above; conditions: scored visually after 3 weeks vs untreated controls
Description: as §1

[3] = system: ABUTH Abutilon theophrasti; assay: as above; conditions: scored visually after 3 weeks vs untreated controls
Description: as §1

[4] = system: MATIN Matricaria inodora; assay: as above; conditions: scored visually after 3 weeks vs untreated controls
Description: as §1

[5] = system: DIGSA Digitaria sanguinalis; assay: as above; conditions: scored visually after 3 weeks vs untreated controls
Description: as §1

[6] = system: ECHCG Echinochloa crus-galli; assay: as above; conditions: scored visually after 3 weeks vs untreated controls
Description: as §1

[7] = system: AMARE Amaranthus retroflexus; assay: as above; conditions: scored visually after 3 weeks vs untreated controls
Description: as §1

[8] = system: LOLRI Lolium rigidum; assay: as above; conditions: scored visually after 3 weeks vs untreated controls
Description: as §1

[9] = system: ALOMY Alopecurus myosuroides; assay: as above; conditions: 80 g/ha, scored visually after 3 weeks vs untreated controls
Description: as §1

[10] = system: PHBPU Pharbitis purpurea; assay: Post-emergence herbicidal action against harmful plants; conditions: one-leaf stage, assessed visually after about 3 weeks vs untreated controls
Description: (§2) The abbreviations used for the harmful plants mean: • ABUTH Abutilon theophrasti ALOMY Alopecurus myosuroides • AVEFA Avena fatua AMARE Amaranthus retroflexus • CYPES Cyperus esculentus DIGSA Digitaria sanguinalis • ECHCG Echinochloa crus-galli HORMU Hordeum murinum • LOLMU Lolium multiflorum LOLRI Lolium rigidum • MATIN Matricaria inodora PHBPU Pharbitis purpurea • POLCO Polygonum convolvulus SETVI Setaria viridis • STEME Stellaria media VERPE Veronica persica • VIOTR Viola tricolor 2. Post-Emergence Herbicidal Action Against Harmful Plants Seeds of monocotyledonous and dicotyledonous weed and crop plants are laid out in sandy loam soil in wood-fiber pots, covered with soil and cultivated in a greenhouse under good growth conditions. 2 to 3 weeks after sowing, the test plants are treated at the one-leaf stage. The compounds of the invention, formulated in the form of wettable powders (WP) or as emulsion concentrates (EC), are then sprayed onto the green parts of the plants in the form of an aqueous suspension or emulsion at a water application rate equivalent to 600 to 800 l/ha, with addition of 0.2% wetting agent. After the test plants have been left to stand in the greenhouse under optimal growth conditions for about 3 weeks, the action of the preparations is assessed visually in comparison to untreated controls (herbicidal action in percent (%): 100% activity=the plants have died, 0% activity=like control plants). […] The tables below illustrate, in an illustrative manner, the post-emergence herbicidal action of the compounds of the invention, the herbicidal activity being stated in percent.

[11] = system: AMARE Amaranthus retroflexus; assay: as above; conditions: one-leaf stage, assessed visually after about 3 weeks vs untreated controls
Description: as §2

[12] = system: PHBPU Pharbitis purpurea; assay: Pre-emergence herbicidal action against harmful plants; conditions: scored visually after 3 weeks vs untreated controls
Description: as §1

[13] = system: ECHCG Echinochloa crus-galli; assay: Post-emergence herbicidal action against harmful plants; conditions: 20 g/ha, one-leaf stage, assessed visually after about 3 weeks vs untreated controls
Description: as §2

CCn1nnnc1NC(=O)c1c(F)cc(C(F)(F)F)c(C(=O)N(C)C)c1C [Example 2-95, N′-(1-ethyl-1H-tetrazol-5-yl)-4-fluoro-N,N,2-trimethyl-6-(trifluoromethyl)isophthalamide]
Pre-emergence action at 80 g/ha against SETVI in % [1]: 90%
Pre-emergence action at 20 g/ha against POLCO in % [2]: 80%
Pre-emergence action at 80 g/ha against POLCO in % [2]: 100%
Pre-emergence action at 80 g/ha against ABUTH in % [3]: 100%
Pre-emergence action at 80 g/ha against MATIN in % [4]: 90%
Pre-emergence action at 20 g/ha against DIGSA in % [5]: 90%
Pre-emergence action at 80 g/ha against DIGSA in % [5]: 100%
Pre-emergence action at 80 g/ha against ECHCG in % [6]: 80%
Pre-emergence action at 80 g/ha against AMARE in % [7]: 100%
Pre-emergence action at 80 g/ha against LOLRI in % [8]: 80%
Pre-emergence action at 80 g/ha against ALOMY in % [9]: 90%
Post-emergence action at 20 g/ha against PHBPU in % [10]: 80%

CCNC(=O)c1c(C(F)(F)F)cc(OC)c(C(=O)Nc2nnnn2C)c1Cl [Example 1-388]
Post-emergence action at 20 g/ha against AMARE in % [11]: 80%

CCn1nnnc1NC(=O)c1c(F)cc(C(F)(F)F)c(C(=O)NCC2CC2)c1C [Example 2-384]
Pre-emergence action at 80 g/ha against PHBPU in % [12]: 80%
Pre-emergence action at 80 g/ha against SETVI in % [1]: 80%
Pre-emergence action at 20 g/ha against POLCO in % [2]: 90%
Pre-emergence action at 80 g/ha against POLCO in % [2]: 100%
Pre-emergence action at 20 g/ha against ABUTH in % [3]: 90%
Pre-emergence action at 80 g/ha against ABUTH in % [3]: 100%
Pre-emergence action at 80 g/ha against MATIN in % [4]: 100%
Pre-emergence action at 20 g/ha against DIGSA in % [5]: 80%
Pre-emergence action at 80 g/ha against DIGSA in % [5]: 100%
Pre-emergence action at 80 g/ha against ECHCG in % [6]: 80%
Pre-emergence action at 20 g/ha against AMARE in % [7]: 100%
Pre-emergence action at 80 g/ha against AMARE in % [7]: 100%
Pre-emergence action at 80 g/ha against ALOMY in % [9]: 80%
Post-emergence action at 20 g/ha against ECHCG in % [13]: 80%
Post-emergence action at 5 g/ha against AMARE in % [11]: 90%
Post-emergence action at 20 g/ha against AMARE in % [11]: 90%

CCNC(=O)c1c(C(F)(F)F)cc(F)c(C(=O)Nc2nnnn2C)c1C [Example 1-93]
Pre-emergence action at 80 g/ha against PHBPU in % [12]: 90%
Pre-emergence action at 80 g/ha against SETVI in % [1]: 80%
Pre-emergence action at 80 g/ha against POLCO in % [2]: 80%
Pre-emergence action at 20 g/ha against ABUTH in % [3]: 100%
Pre-emergence action at 80 g/ha against ABUTH in % [3]: 100%
Pre-emergence action at 80 g/ha against MATIN in % [4]: 90%
Pre-emergence action at 20 g/ha against DIGSA in % [5]: 80%
Pre-emergence action at 80 g/ha against DIGSA in % [5]: 100%
Pre-emergence action at 80 g/ha against ECHCG in % [6]: 90%
Pre-emergence action at 20 g/ha against AMARE in % [7]: 100%
Pre-emergence action at 80 g/ha against AMARE in % [7]: 100%
Pre-emergence action at 80 g/ha against LOLRI in % [8]: 80%
Pre-emergence action at 80 g/ha against ALOMY in % [9]: 80%
Post-emergence action at 5 g/ha against PHBPU in % ([10]; 5 g/ha): 80%
Post-emergence action at 20 g/ha against PHBPU in % [10]: 90%
Post-emergence action at 5 g/ha against AMARE in % [11]: 90%
Post-emergence action at 20 g/ha against AMARE in % [11]: 90%

CCn1nnnc1NC(=O)c1c(F)cc(C(F)(F)F)c(C(=O)NC)c1C [Example 2-92]
Pre-emergence action at 80 g/ha against PHBPU in % [12]: 80%
Pre-emergence action at 20 g/ha against POLCO in % [2]: 80%
Pre-emergence action at 80 g/ha against POLCO in % [2]: 90%
Pre-emergence action at 80 g/ha against ABUTH in % [3]: 80%
Pre-emergence action at 20 g/ha against MATIN in % [4]: 90%
Pre-emergence action at 80 g/ha against MATIN in % [4]: 90%
Pre-emergence action at 20 g/ha against DIGSA in % [5]: 80%
Pre-emergence action at 80 g/ha against DIGSA in % [5]: 100%
Pre-emergence action at 20 g/ha against AMARE in % [7]: 100%
Pre-emergence action at 80 g/ha against AMARE in % [7]: 100%
Pre-emergence action at 80 g/ha against LOLRI in % [8]: 90%
Post-emergence action at 20 g/ha against PHBPU in % [10]: 80%
Post-emergence action at 20 g/ha against ECHCG in % [13]: 80%
Post-emergence action at 5 g/ha against AMARE in % [11]: 90%
Post-emergence action at 20 g/ha against AMARE in % [11]: 90%

Cc1c(C(=O)Nc2nnnn2C)c(F)cc(C(F)(F)F)c1C(=O)NCC(F)F [Example 1-385, N^1-(2,2-difluoroethyl)-4-fluoro-2-methyl-N^3-(1-methyl-1H-tetrazol-5-yl)-6-(trifluoromethyl)isophthalamide]
Pre-emergence action at 80 g/ha against PHBPU in % [12]: 80%
Pre-emergence action at 80 g/ha against SETVI in % [1]: 90%
Pre-emergence action at 80 g/ha against ABUTH in % [3]: 80%
Pre-emergence action at 80 g/ha against MATIN in % [4]: 90%
Pre-emergence action at 20 g/ha against DIGSA in % [5]: 80%
Pre-emergence action at 80 g/ha against DIGSA in % [5]: 100%
Pre-emergence action at 20 g/ha against AMARE in % [7]: 90%
Pre-emergence action at 80 g/ha against AMARE in % [7]: 100%
Pre-emergence action at 80 g/ha against ALOMY in % [9]: 90%
Post-emergence action at 5 g/ha against AMARE in % [11]: 90%
Post-emergence action at 20 g/ha against AMARE in % [11]: 90%

Cc1c(C(=O)Nc2nnnn2C)c(F)cc(C(F)(F)F)c1C(=O)N(C)C [Example 1-95]
Pre-emergence action at 20 g/ha against SETVI in % ([1]; 20 g/ha): 100%
Pre-emergence action at 80 g/ha against SETVI in % [1]: 100%
Pre-emergence action at 80 g/ha against POLCO in % [2]: 80%
Pre-emergence action at 80 g/ha against MATIN in % [4]: 90%
Pre-emergence action at 20 g/ha against DIGSA in % [5]: 80%
Pre-emergence action at 80 g/ha against DIGSA in % [5]: 90%
Pre-emergence action at 20 g/ha against AMARE in % [7]: 90%
Pre-emergence action at 80 g/ha against AMARE in % [7]: 100%
Pre-emergence action at 80 g/ha against ALOMY in % [9]: 90%
Post-emergence action at 20 g/ha against AMARE in % [11]: 90%

CCn1nnnc1NC(=O)c1c(F)cc(C(F)(F)F)c(C(=O)NCC#N)c1C [Example 2-386]
Pre-emergence action at 80 g/ha against POLCO in % [2]: 80%
Pre-emergence action at 80 g/ha against MATIN in % [4]: 80%
Pre-emergence action at 80 g/ha against AMARE in % [7]: 100%

CCNC(=O)c1c(C(F)(F)F)cc(F)c(C(=O)Nc2nnnn2CC)c1C [Example 2-93, N^1-ethyl-N^3-(1-ethyl-1H-tetrazol-5-yl)-4-fluoro-2-methyl-6-(trifluoromethyl)isophthalamide]
Pre-emergence action at 20 g/ha against PHBPU in % ([12]; 20 g/ha): 80%
Pre-emergence action at 80 g/ha against PHBPU in % [12]: 90%
Pre-emergence action at 80 g/ha against SETVI in % [1]: 80%
Pre-emergence action at 80 g/ha against ABUTH in % [3]: 100%
Pre-emergence action at 20 g/ha against MATIN in % [4]: 80%
Pre-emergence action at 80 g/ha against MATIN in % [4]: 90%
Pre-emergence action at 80 g/ha against DIGSA in % [5]: 100%
Pre-emergence action at 80 g/ha against ECHCG in % [6]: 80%
Pre-emergence action at 20 g/ha against AMARE in % [7]: 100%
Pre-emergence action at 80 g/ha against AMARE in % [7]: 100%
Pre-emergence action at 80 g/ha against ALOMY in % [9]: 90%
Post-emergence action at 20 g/ha against PHBPU in % [10]: 90%
Post-emergence action at 5 g/ha against AMARE in % [11]: 80%
Post-emergence action at 20 g/ha against AMARE in % [11]: 90%
